Tests used:
Details in all cases: 72 h
U2OS [1] = assay: relative viability EC50 (midpoint between 100% and the lowest measured viability); higher = less toxic
Caco-2 [2] = assay: as above
Calu-3 [3] = assay: as above
Vero E6 [4] = assay: as above
HepG2 [5] = assay: as above
U2OS [6] = assay: drug sensitivity score (DSS) for viability; higher = more toxic; extreme values may be limits of the assay
Caco-2 [7] = assay: as above
Calu-3 [8] = assay: as above
Vero E6 [9] = assay: as above
HepG2 [10] = assay: as above
U2OS [11] = assay: cell viability relative to DMSO; higher = less toxic
Caco-2 [12] = assay: as above
Calu-3 [13] = assay: as above
Vero E6 [14] = assay: as above
HepG2 [15] = assay: as above

SMILES | relative viability EC50 (U2OS [1]) | relative viability EC50 (Caco-2 [2]) | relative viability EC50 (Calu-3 [3]) | relative viability EC50 (Vero E6 [4]) | relative viability EC50 (HepG2 [5]) | drug sensitivity score (U2OS [6]) | drug sensitivity score (Caco-2 [7]) | drug sensitivity score (Calu-3 [8]) | drug sensitivity score (Vero E6 [9]) | drug sensitivity score (HepG2 [10]) | cell viability (U2OS [11]; 1 nM) | cell viability (U2OS [11]; 10 nM) | cell viability (U2OS [11]; 100 nM) | cell viability (U2OS [11]; 1000 nM) | cell viability (U2OS [11]; 10000 nM) | cell viability (Caco-2 [12]; 1 nM) | cell viability (Caco-2 [12]; 10 nM) | cell viability (Caco-2 [12]; 100 nM) | cell viability (Caco-2 [12]; 1000 nM) | cell viability (Caco-2 [12]; 10000 nM) | cell viability (Calu-3 [13]; 1 nM) | cell viability (Calu-3 [13]; 10 nM) | cell viability (Calu-3 [13]; 100 nM) | cell viability (Calu-3 [13]; 1000 nM) | cell viability (Calu-3 [13]; 10000 nM) | cell viability (Vero E6 [14]; 1 nM) | cell viability (Vero E6 [14]; 10 nM) | cell viability (Vero E6 [14]; 100 nM) | cell viability (Vero E6 [14]; 1000 nM) | cell viability (Vero E6 [14]; 10000 nM) | cell viability (HepG2 [15]; 1 nM) | cell viability (HepG2 [15]; 10 nM) | cell viability (HepG2 [15]; 100 nM) | cell viability (HepG2 [15]; 1000 nM) | cell viability (HepG2 [15]; 10000 nM)
N#Cc1cc2nc(O)c(O)nc2cc1[N+](=O)[O-] [CNQX] | > 10 µM | > 10 µM | > 10 µM | > 10 µM | > 10 µM | 0 | 0 | 0.4 | 0 | 0 | 97.9% | 101% | 97.9% | 104% | 96.8% | 99% | 96.1% | 99.8% | 97.5% | 94.6% | 95.9% | 101% | 106% | 97% | 85.8% | 100% | 100% | 104% | 94.8% | 95.2% | 99.4% | 94.7% | 99.1% | 98.3% | 99.5%
O=C(O)C1=C(CSc2nnnn2CS(=O)(=O)O)CS[C@@H]2[C@H](NC(=O)[C@H](O)c3ccccc3)C(=O)N12 [Cefonicid (sodium)] | > 10 µM | > 10 µM | > 10 µM | > 10 µM | > 10 µM | 0 | 0 | 0 | 0 | 0 | 95.1% | 99.2% | 94.3% | 101% | 94.4% | 97.8% | 102% | 93.4% | 97.7% | 102% | 95.7% | 97.2% | 97.9% | 96.6% | 95.8% | 99.9% | 98.9% | 102% | 99.1% | 99.5% | 103% | 100% | 92.2% | 103% | 97.7%
CCn1c(=O)[nH]c2cc(Cl)c(Cl)cc21 [DCEBIO] | > 10 µM | > 10 µM | > 10 µM | > 10 µM | > 10 µM | 0 | 0 | 0 | 0 | 0 | 98% | 103% | 98.3% | 98.3% | 97% | 98.2% | 97.2% | 99.7% | 93% | 98.7% | 101% | 98.6% | 93.8% | 96.9% | 102% | 102% | 100% | 96% | 99.9% | 99.2% | 101% | 104% | 104% | 86.3% | 107%
CC(C)Oc1ccc(-c2cnc3c(-c4ccnc5ccccc45)cnn3c2)cc1 [DMH1] | > 10 µM | > 10 µM | > 10 µM | > 10 µM | > 10 µM | 0 | 0 | 0 | 0 | 0 | 103% | 100% | 98.4% | 94.4% | 89.8% | 108% | 93.7% | 102% | 95.9% | 95.6% | 117% | 102% | 105% | 108% | 96.4% | 95.4% | 104% | 98.2% | 104% | 104% | 104% | 103% | 100% | 96.8% | 90%
CC(=O)c1ccc(NS(C)(=O)=O)c(Oc2ccc(F)cc2F)c1 [FK-3311] | > 10 µM | > 10 µM | > 10 µM | > 10 µM | > 10 µM | 0 | 0 | 0 | 0 | 0.1 | 104% | 98.1% | 98.7% | 97.2% | 102% | 99% | 90.1% | 96.9% | 94% | 95.8% | 110% | 93.1% | 103% | 109% | 114% | 98.3% | 101% | 96.2% | 102% | 92.8% | 98.3% | 107% | 98.6% | 99.5% | 87.3%
CCCCC/C=C\C/C=C\CCCCCCCC(=O)NCCCC(=O)O [GABA-linoleamide] | > 10 µM | > 10 µM | > 10 µM | > 10 µM | > 10 µM | 0 | 0 | 0 | 0 | 0 | 95.2% | 97.9% | 99.3% | 102% | 95.8% | 96.9% | 110% | 96.2% | 87.5% | 126% | 86% | 97.9% | 87% | 111% | 90.6% | 106% | 108% | 111% | 99.1% | 114% | 74.4% | 97.2% | 95.6% | 98.2% | 120%
CC/C(=C(/c1ccc(/C=C/C(=O)O)cc1)c1ccc2[nH]ncc2c1)c1ccc(F)cc1Cl [GDC-0810] | > 10 µM | > 10 µM | > 10 µM | > 10 µM | > 10 µM | 0 | 0 | 0 | 0 | 0 | 101% | 102% | 98.7% | 104% | 100% | 102% | 94.6% | 95% | 102% | 92.7% | 105% | 110% | 84.4% | 108% | 105% | 92.9% | 102% | 96.4% | 100% | 90.6% | 87.5% | 109% | 92.2% | 94.1% | 90.6%
Cc1cc(C)c(CNC(=O)c2cc(-c3ccc(N4CCN(C)CC4)nc3)cc3c2c(C)cn3C(C)C)c(=O)[nH]1 [GSK503] | > 10 µM | > 10 µM | > 10 µM | > 10 µM | > 10 µM | 0 | 0 | 0 | 0 | 0.4 | 104% | 98.6% | 104% | 101% | 102% | 98.8% | 104% | 93.7% | 105% | 102% | 88.3% | 85.3% | 92.9% | 109% | 104% | 101% | 104% | 105% | 98.6% | 102% | 92.6% | 112% | 99.7% | 94.4% | 87.2%
CCN(CC)CCNC(=O)c1ccccc1I [I-BZA2] | > 10 µM | > 10 µM | > 10 µM | > 10 µM | > 10 µM | 0 | 0 | 0 | 0 | 0 | 99.1% | 101% | 95.8% | 102% | 102% | 89.9% | 86.5% | 98.7% | 100% | 91.4% | 98.8% | 102% | 105% | 105% | 115% | 99% | 99.3% | 104% | 91.5% | 110% | 105% | 94.7% | 102% | 84% | 100%
CCN(CC)CCNC(=O)c1ccc(I)cc1 [I-BZA] | > 10 µM | > 10 µM | > 10 µM | > 10 µM | > 10 µM | 0 | 0 | 0 | 0 | 0 | 99.7% | 94.7% | 98.5% | 95.8% | 101% | 96.9% | 95.9% | 104% | 106% | 104% | 93.3% | 101% | 96.3% | 105% | 114% | 91.3% | 104% | 95% | 101% | 94.8% | 93.9% | 101% | 98.9% | 102% | 93.1%
CCCNC(=O)Nc1ccc(Oc2ncnc3cc(OC)c(OC)cc23)cc1Cl [KRN-633] | > 10 µM | > 10 µM | > 10 µM | > 10 µM | > 10 µM | 0 | 0 | 0 | 0 | 0 | 96.8% | 97.7% | 96% | 97% | 93.4% | 92.8% | 98.5% | 86.6% | 93% | 90.8% | 100% | 101% | 95.4% | 101% | 97.4% | 101% | 103% | 104% | 105% | 99.2% | 103% | 90.5% | 100% | 92.1% | 94.5%
Cc1cc(N2CCCCC2)nc2ccccc12 [ML204] | > 10 µM | > 10 µM | > 10 µM | > 10 µM | > 10 µM | 0 | 0 | 0 | 0 | 0 | 99.7% | 98.4% | 96.9% | 102% | 101% | 87.9% | 97.4% | 84.3% | 96.2% | 87.9% | 113% | 95.5% | 101% | 107% | 110% | 91.7% | 92.7% | 87.3% | 92.2% | 103% | 92% | 93.5% | 88.8% | 104% | 102%
Cc1cc(NC(=O)Nc2ccc(F)c(F)c2)n(-c2ccccc2)n1 [ML297] | > 10 µM | > 10 µM | > 10 µM | > 10 µM | > 10 µM | 0 | 0 | 0 | 0 | 0 | 97.1% | 101% | 101% | 103% | 98.2% | 96.9% | 97% | 95.9% | 108% | 99.2% | 103% | 98.5% | 105% | 97.4% | 98.7% | 104% | 99.5% | 98.2% | 102% | 99.5% | 105% | 90.5% | 108% | 91.6% | 98.1%
O=C(Nc1ccc(O)cc1)c1ccccc1O [N-salicoylaminophenol] | > 10 µM | > 10 µM | > 10 µM | > 10 µM | > 10 µM | 0 | 0 | 0 | 0 | 0 | 96.6% | 98.1% | 95.6% | 97.4% | 93.3% | 94.3% | 96% | 97.4% | 94.7% | 92.7% | 105% | 99.1% | 95.2% | 94.1% | 94.7% | 93.2% | 99.4% | 90.9% | 93.1% | 110% | 90.2% | 106% | 92.1% | 105% | 113%
